Biological target: T1, ΔF508-CFTR (Homo sapiens, UniProt P13569, DEL508-508)
T1 construct: expressed in transfected cells; host or cells: CFSMEo- (human CF submucosal gland epithelial cells, ΔF508/Q2X), transiently transfected by nucleofection
Assay: ΔF508-CFTR-HRP trafficking assay (cell surface expression of ΔF508-CFTR)
Type: cell-based
Details: CFSMEo- cells transiently transfected with ΔF508-CFTR-HRP; test agent 3 μM, 48 h; HRP chemiluminescence
Method in brief: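 Surface-expressed ΔF508-CFTR measured via extracellular HRP tag: cell-impermeable chemiluminescent substrate, 5 min, signal normalized to 0.3% DMSO vehicle.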

T1 sequence (P13569 with tags, fused parts or gaps DEL508-508): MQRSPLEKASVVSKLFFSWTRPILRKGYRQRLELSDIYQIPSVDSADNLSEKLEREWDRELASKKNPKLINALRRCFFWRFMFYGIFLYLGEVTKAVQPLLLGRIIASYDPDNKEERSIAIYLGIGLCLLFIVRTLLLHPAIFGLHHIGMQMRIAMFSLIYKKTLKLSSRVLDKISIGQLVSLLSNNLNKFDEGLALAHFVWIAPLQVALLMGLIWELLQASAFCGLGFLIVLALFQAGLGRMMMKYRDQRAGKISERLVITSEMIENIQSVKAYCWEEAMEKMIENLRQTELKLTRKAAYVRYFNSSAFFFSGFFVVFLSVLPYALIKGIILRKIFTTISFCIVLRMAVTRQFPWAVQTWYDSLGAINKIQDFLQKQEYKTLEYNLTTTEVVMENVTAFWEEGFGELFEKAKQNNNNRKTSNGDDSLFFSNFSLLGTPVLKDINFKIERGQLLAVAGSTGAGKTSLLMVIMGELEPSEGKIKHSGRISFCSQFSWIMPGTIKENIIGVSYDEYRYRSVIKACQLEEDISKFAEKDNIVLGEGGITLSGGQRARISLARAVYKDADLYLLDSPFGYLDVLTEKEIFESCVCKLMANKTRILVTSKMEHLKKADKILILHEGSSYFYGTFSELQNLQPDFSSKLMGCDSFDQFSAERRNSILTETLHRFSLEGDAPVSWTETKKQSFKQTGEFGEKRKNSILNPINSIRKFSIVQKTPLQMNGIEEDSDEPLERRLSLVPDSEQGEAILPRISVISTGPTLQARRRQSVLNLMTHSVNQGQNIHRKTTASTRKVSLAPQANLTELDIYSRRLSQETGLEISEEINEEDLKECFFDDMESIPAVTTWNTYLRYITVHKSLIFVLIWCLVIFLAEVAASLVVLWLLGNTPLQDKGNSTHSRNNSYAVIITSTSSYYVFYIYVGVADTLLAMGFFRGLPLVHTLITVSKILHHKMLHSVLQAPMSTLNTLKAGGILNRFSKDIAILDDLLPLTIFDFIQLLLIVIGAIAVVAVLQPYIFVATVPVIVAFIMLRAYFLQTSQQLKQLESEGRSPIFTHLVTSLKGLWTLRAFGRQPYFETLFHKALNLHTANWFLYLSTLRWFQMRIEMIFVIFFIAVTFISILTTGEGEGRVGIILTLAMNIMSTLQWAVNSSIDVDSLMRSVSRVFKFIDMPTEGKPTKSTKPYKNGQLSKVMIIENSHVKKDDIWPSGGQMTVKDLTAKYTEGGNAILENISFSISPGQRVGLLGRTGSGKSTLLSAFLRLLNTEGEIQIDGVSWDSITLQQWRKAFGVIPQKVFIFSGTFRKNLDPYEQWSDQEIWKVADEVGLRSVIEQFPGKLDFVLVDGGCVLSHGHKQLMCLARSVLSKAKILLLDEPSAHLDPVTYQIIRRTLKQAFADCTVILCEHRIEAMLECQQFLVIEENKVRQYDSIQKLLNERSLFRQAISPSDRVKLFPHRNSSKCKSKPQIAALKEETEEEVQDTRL

Row | Compound | RLUs: ΔF508-CFTR-HRP trafficking data normalized to the vehicle treated control (0.3% DMSO)
1 | C[C@H](Oc1cc(-n2nc(C(F)(F)F)c3c2[C@H](OC24CC(C(=O)O)(C2)C4)CCC3)ccn1)c1ccc2c(c1)OC(F)(F)O2 [Example 52, 3-[[(7R)-1-[2-[(1S)-1-(2,2-difluoro-1,3-benzodioxol-5-yl)ethoxy]-4-pyridyl]-3-(trifluoromethyl)-4,5,6,7-tetrahydroindazol-7-yl]oxy]bicyclo[1.1.1]pentane-1-carboxylic acid] | C (RLU 0.0 μM-3.5 μM)
2 | C[C@H](Oc1cncc(-n2nc(C(F)(F)F)c3c2C(Nc2ccc(C(=O)O)cc2)CCC3)c1)c1ccc2c(c1)OC(F)(F)O2 (stereo partly drawn) [Example 69, 4-[[1-[5-[(1S)-1-(2,2-difluoro-1,3-benzodioxol-5-yl)ethoxy]-3-pyridyl]-3-(trifluoromethyl)-4,5,6,7-tetrahydroindazol-7-yl]amino]benzoic acid] | B (RLU 3.5 μM-5.0 μM)
3 | C[C@H](Oc1cccc(-n2nc(C(F)(F)F)c3c2C(Sc2ccc(C(=O)O)cc2)CCC3)c1)c1ccc2c(c1)OC(F)(F)O2 (stereo partly drawn) [Example 70, 4-((1-(3-((S)-1-(2,2-difluorobenzo[d][1,3]dioxol-5-yl)ethoxy)phenyl)-3-(trifluoromethyl)-4,5,6,7-tetrahydro-1H-indazol-7-yl)thio)benzoic acid] | A (RLU 5.0 μM-10 μM)
4 | C[C@H](Oc1cccc(-n2nc(C(F)(F)F)c3c2C(S(=O)(=O)c2ccc(C(=O)O)cc2)CCC3)c1)c1ccc2c(c1)OC(F)(F)O2 (stereo partly drawn) [Example 71, 4-[[1-[3-[(1S)-1-(2,2-difluoro-1,3-benzodioxol-5-yl)ethoxy]phenyl]-3-(trifluoromethyl)-4,5,6,7-tetrahydroindazol-7-yl]sulfonyl]benzoic acid] | C (RLU 0.0 μM-3.5 μM)

More lines, now with the values ahead:

Row | RLUs: ΔF508-CFTR-HRP trafficking data normalized to the vehicle treated control (0.3% DMSO) | Compound
5 | B (RLU 3.5 μM-5.0 μM) | CC(Sc1cccc(-n2nc(C(F)(F)F)c3c2C(Oc2ccc(C(=O)O)cc2)CCC3)c1)c1ccc2c(c1)OC(F)(F)O2 (stereo not drawn) [Example 116, 4-[[1-[3-[1-(2,2-difluoro-1,3-benzodioxol-5-yl)ethylsulfanyl]phenyl]-3-(trifluoromethyl)-4,5,6,7-tetrahydroindazol-7-yl]oxy]benzoic acid]
6 | C (RLU 0.0 μM-3.5 μM) | CC(c1ccc2c(c1)OC(F)(F)O2)[S+]([O-])c1cccc(-n2nc(C(F)(F)F)c3c2C(Oc2ccc(C(=O)O)cc2)CCC3)c1 (stereo not drawn) [Example 117, 4-[[1-[3-[1-(2,2-difluoro-1,3-benzodioxol-5-yl)ethylsulfinyl]phenyl]-3-(trifluoromethyl)-4,5,6,7-tetrahydroindazol-7-yl]oxy]benzoic acid]
7 | C (RLU 0.0 μM-3.5 μM) | CC(c1ccc2c(c1)OC(F)(F)O2)S(=O)(=O)c1cccc(-n2nc(C(F)(F)F)c3c2C(Oc2ccc(C(=O)O)cc2)CCC3)c1 (stereo not drawn) [Example 118, 4-[[1-[3-[1-(2,2-difluoro-1,3-benzodioxol-5-yl)ethylsulfonyl]phenyl]-3-(trifluoromethyl)-4,5,6,7-tetrahydroindazol-7-yl]oxy]benzoic acid]
8 | C (RLU 0.0 μM-3.5 μM) | CC(c1ccc2c(c1)OC(F)(F)O2)C1(c2cc(-n3nc(C(F)(F)F)c4c3C(Oc3ccc(C(=O)O)cc3)CCC4)ccn2)COC1 (stereo not drawn) [Example 119, 4-[[1-[2-[3-[1-(2,2-difluoro-1,3-benzodioxol-5-yl)ethyl]oxetan-3-yl]-4-pyridyl]-3-(trifluoromethyl)-4,5,6,7-tetrahydroindazol-7-yl]oxy]benzoic]
9 | B (RLU 3.5 μM-5.0 μM) | C[C@H](Oc1cccc(-n2nc(C(F)(F)F)c3c2C(S(=O)(=O)N2CCC(C(=O)O)CC2)CCC3)c1)c1ccc2c(c1)OC(F)(F)O2 (stereo partly drawn) [Example 123]
